Measurements from PMC6399351, “Cationic Intrinsically Disordered Antimicrobial Peptides (CIDAMPs) Represent a New Paradigm of Innate Defense with a Potential for Novel Anti-Infectives” (Scientific Reports, 2019).
Where two headings read alike, the source gives them in different places. Square brackets hold non-standard residues; d marks the D form. Ends that are not written are not given here. Peptide text beside a SMILES is read from it. * marks the point of attachment. Palmitoyl = CCCCCCCCCCCCCCCC(=O)*

Tests used:
P. aeruginosa ATCC 10145 = settings: CFU assay, 10 mM NaP
S. aureus ATCC 6538 = settings: CFU assay, 10 mM NaP, pH 5.5, 0.25% glucose

Molecule	LD100 (P. aeruginosa ATCC 10145; pH 5.5, 1% TSB) [µg/mL]	LD90 (P. aeruginosa ATCC 10145; pH 5.5, 1% TSB) [µg/mL]	LD90 (P. aeruginosa ATCC 10145; pH 5.5, 0.25% glucose) [µg/mL]	LD100 (P. aeruginosa ATCC 10145; pH 5.5, 0.25% glucose) [µg/mL]	also measured
GRHGSGSGQSSSYGPYGSGSGWSSSRGPY [HRNR1952-1980]	> 300	–	–	–	–
SGQSSR [HR 1-2]	> 300	> 300	–	–	–
GSGSRQSSSYGRHGSGSGR [HR 2-4S]	> 300	150	–	–	–
RQSPSYGRHGSGSGR [HR 2-14]	> 300	300	–	–	–
HTHSGHTHGQAGSHYPESGSSVHER [FLG-21969-1993]	–	–	0.038	0.3	–
HAHSGHGQSTQR [FLG-22082-2093]	–	–	0.15	2.35	–
CCCCCCCCCCCCCCCC(=O)SC[C@H](NC(=O)[C@H](CO)NC(=O)[C@H](CO)NC(=O)[C@H](CO)NC(=O)[C@H](CCC(N)=O)NC(=O)CNC(=O)[C@H](CO)NC(=O)[C@@H](NC(=O)[C@H](CO)NC(=O)CNC(=O)[C@H](Cc1c[nH]cn1)NC(=O)[C@H](CCC(N)=O)NC(=O)CNC(=O)[C@H](Cc1c[nH]cn1)NC(=O)[C@@H](NC(=O)[C@H](CO)NC(=O)[C@H](CO)NC(=O)[C@H](Cc1c[nH]cn1)NC(=O)CNC(=O)[C@H](CO)NC(=O)[C@H](CO)NC(=O)[C@H](CO)NC(=O)CNC(=O)[C@H](Cc1c[nH]cn1)NC(=O)[C@H](CCC(N)=O)NC(=O)CN)[C@@H](C)O)[C@@H](C)O)C(N)=O [S-Pal-HRNR598–623] (H-GQHGSSSGHSSTHGQHGSTSGQSSSC(Palmitoyl)-NH2; N-terminus assumed)	–	–	–	–	LD90 (S. aureus ATCC 6538): 2.35 µg/mL; LD100 (S. aureus ATCC 6538): > 150 µg/mL
GSGSRQSLSYGRHGSGSGR [HR 2-4L]	> 300	75	–	–	–
GRHGSGLGHSSSHGQHGSGSGRSSSGGPY [HR 1-17R3-G]	–	–	0.038	0.15 to 0.3	–
GSRQSPSYGRHGSGSGR [HR 2-12]	> 300	> 300	–	–	–
GRGGSGLGGSSSGGQGGSGSGRSSSRGPY [HR 1-174H-4G]	–	–	75	> 300	–
HTHSGHAHGQAGSQHGESGSSVHER [FLG-22044-2068]	–	–	0.038	0.3	–
QSPSYGRHGSGSGR [HR 2-5]	> 300	> 300	–	–	–
N=C(N)NCCC[C@H](NC(=O)[C@H](CC(=O)O)NC(=O)[C@H](CS)NC(=O)[C@H](CO)NC(=O)[C@H](CC(N)=O)NC(=O)[C@H](CO)NC(=O)[C@H](CCCNC(=N)N)NC(=O)[C@H](CCC(N)=O)NC(=O)[C@H](CCCNC(=N)N)NC(=O)[C@H](CCCNC(=N)N)NC(=O)[C@H](CS)NC(=O)[C@H](CCC(N)=O)NC(=O)[C@H](Cc1c[nH]cn1)NC(=O)[C@H](CO)NC(=O)[C@H](CCCNC(=N)N)NC(=O)[C@H](Cc1ccccc1)NC(=O)[C@H](Cc1c[nH]cn1)NC(=O)[C@H](CCCNC(=N)N)NC(=O)[C@H](Cc1c[nH]cn1)NC(=O)[C@H](Cc1c[nH]cn1)NC(=O)[C@@H](N)CO)C(=O)O [LCE-3C55-75] (H-SHHRHFRSHQCRRQRSNSCDR-OH; N-terminus and C-terminus assumed)	–	–	–	–	LD90 (S. aureus ATCC 6538): 0.59 µg/mL; LD100 (S. aureus ATCC 6538): > 150 µg/mL
CCCCCCCCCCCCCCCC(=O)SC[C@H](NC(=O)[C@H](Cc1ccccc1)NC(=O)[C@H](Cc1c[nH]cn1)NC(=O)CNC(=O)[C@H](CO)NC(=O)CNC(=O)[C@H](CO)NC(=O)CNC(=O)[C@H](Cc1c[nH]cn1)NC(=O)[C@H](CCC(N)=O)NC(=O)[C@H](CO)NC(=O)[C@H](Cc1ccc(O)cc1)NC(=O)[C@H](C)NC(=O)[C@H](CO)NC(=O)[C@H](CO)NC(=O)[C@H](Cc1c[nH]cn1)NC(=O)CNC(=O)[C@H](CO)NC(=O)CNC(=O)[C@H](CO)NC(=O)[C@H](CCC(=O)O)NC(=O)[C@H](Cc1c[nH]cn1)NC(=O)[C@H](CCC(N)=O)NC(=O)CNC(=O)[C@H](Cc1ccccc1)NC(=O)[C@@H](NC(=O)[C@H](CO)NC(=O)[C@H](CO)NC(=O)[C@H](Cc1c[nH]cn1)NC(=O)CNC(=O)[C@@H](N)CO)C(C)C)C(N)=O [S-Pal-HRNR1748–1778] (H-SGHSSVFGQHESGSGHSSAYSQHGSGSGHFC(Palmitoyl)-NH2; N-terminus assumed)	–	–	–	–	LD90 (S. aureus ATCC 6538): 0.3 µg/mL; LD100 (S. aureus ATCC 6538): 9.38 µg/mL
GSGSRQSPSHGRHGSGSGR [HR 2-4H]	> 300	75	–	–	–
GSGSRQSPSYGR [HR 2-8]	> 300	37.5	–	–	–
GRHGSGGGHSSSHGGHGSGSGR [HR 1-18,L-G/Q-G]	–	–	–	0.15	–
GSRTAGRRGSGH [FLG-22094-2105]	–	–	–	> 300	–
HGSGSGR [HR 2-9]	> 300	> 300	–	–	–
HTHSGHTHGQARSQHGESESIVHER [FLG-21742-1766]	–	–	0.038	0.15	–
TAGRRGSGH [FLG-22097-2105]	–	–	> 300	> 300	–

Molecule	LD100 (P. aeruginosa ATCC 10145; pH 5.5, 1% TSB) [µg/mL]	LD90 (P. aeruginosa ATCC 10145; pH 5.5, 1% TSB) [µg/mL]	LD90 (P. aeruginosa ATCC 10145; pH 5.5, 0.25% glucose) [µg/mL]	LD100 (P. aeruginosa ATCC 10145; pH 5.5, 0.25% glucose) [µg/mL]	also measured
RGSGSGHQGHSSSHGLGSGHRG [rev-HR 1-18]	–	–	< 0.019	0.3	–
GGHGSGLGHSSSHGQHGSGSGRSSSRGPY [HR 1-17R1-G]	–	–	0.038	0.3	–
GRHGGGGGHGGGHGGHGGGGGR [HR 1-18,L-G/Q-G/6S-6G]	–	–	–	0.15	–
HTHSGHTHSQARSQHGESESTVHKR [FLG-21894-1918]	–	–	0.038	0.3	–
HAHSGHGQSTQRGSR [FLG-22082-2096]	–	–	0.15	1.18	–
QSPSY [HR 2-3]	> 300	> 300	–	–	–
GRHGSGSGHSSSHGQHGSGSGR [HRNR2186-2207]	–	–	–	4.7 to 9.37	–
HAHYGYGQSTQRGSRTTGRRGSGH [FLG-22232-2255]	–	–	0.075	0.59	–
QGSGSGQSPGHSQRGSGSRQSPSY [HR 2-1]	> 300	> 300	–	–	–
QGSGSGQSPSR [HR 1-6]	> 300	> 300	–	–	–
QSSGHGR [HR 1-5]	> 300	> 300	–	–	–
GSGSRQSPSRGRHGSGSGR [HR 2-4R]	> 300	–	–	–	–
HGSGLGHSSSHGQHGSGSGR [HR 1-8]	> 300	–	4.7	> 300	–
GRHGSGLGHSSSH [HR 1-37]	–	–	9.38	> 300	–
GSGSRQSPSYGRQGSGSGR [HR 2-4Q]	> 300	> 300	–	–	–
QSPSYGR [HR 2-6]	> 300	> 300	–	–	–
GRHGSGSGQSSSYSPYGSGSGWSSSRGPY [HRNR2422-2450]	> 300	2.35	–	–	–
THEHEQSHQRRDRQTHEDKQNRQR [RPTN747-770]	–	–	0.3	150	–
SRQSPSYGRHGSGSGR [HR 2-13]	> 300	> 300	–	–	–
SLSSGHGSGHGHQRGGHRSGSG [scr-HR 1-18]	–	–	< 0.019	0.15	–
SGQSSRGER [HR 1-3]	> 300	> 300	–	–	–
GSGSRQSPSYGRHGSGSGRSSSSGQH [HR 2-11]	> 300	37.5	–	–	–

Molecule	LD100 (P. aeruginosa ATCC 10145; pH 5.5, 1% TSB) [µg/mL]	LD90 (P. aeruginosa ATCC 10145; pH 5.5, 1% TSB) [µg/mL]	LD90 (P. aeruginosa ATCC 10145; pH 5.5, 0.25% glucose) [µg/mL]	LD100 (P. aeruginosa ATCC 10145; pH 5.5, 0.25% glucose) [µg/mL]	also measured
HGSRSGQSSRGERHGSSSGSSSH [HR 1-11]	–	–	0.075	–	–
SSSRGPY [HR 1-10]	> 300	> 300	–	–	–
HGQSTQRGSRTAGRRGSGH [FLG-22087-2105]	–	–	0.075	1.18	–
GSGSRQSPSY [HR 2-2]	> 300	> 300	–	–	–
QGSGSGQSPSRGR [HR 1-7]	> 300	> 300	–	–	–
HAHSGHGQSTQRGSRTAGRRGSGH [FLG-22082-2105]	–	–	< 0.038	0.075	–
GSGSRQSSGHGRQGSGSGQ [HR 1-16]	> 300	> 300	–	–	–
HTHSGHTHGQSGSQHGESESIIHDR [FLG-21515-1539]	–	–	0.075	0.59	–
GRHGSGLGHSSSHGQHGSGSGGSSSRGPY [HR 1-17R2-G]	–	–	0.038	0.15	–
HSQRGSGSRQSPSYGRH [HR 2-16]	–	–	–	37.5	–
CC(C)C[C@@H](NC(=O)CNC(=O)[C@@H](CO)NC(=O)CNC(=O)[C@@H](Cc1c[nH]cn1)NC(=O)[C@@H](CCCNC(=N)N)NC(=O)CN)C(=O)NCC(=O)N[C@H](Cc1c[nH]cn1)C(=O)N[C@H](CO)C(=O)N[C@H](CO)C(=O)N[C@H](CO)C(=O)N[C@H](Cc1c[nH]cn1)C(=O)NCC(=O)N[C@H](CCC(N)=O)C(=O)N[C@H](Cc1c[nH]cn1)C(=O)NCC(=O)N[C@H](CO)C(=O)NCC(=O)N[C@H](CO)C(=O)NCC(=O)N[C@H](CCCNC(=N)N)C(=O)O [(D)HR 1-18] (H-G[dR][dH]G[dS]G[dL]G[dH][dS][dS][dS][dH]G[dQ][dH]G[dS]G[dS]G[dR]-OH; N-terminus and C-terminus assumed)	–	–	0.038	0.3	–
LGHSSSHGQHGSGSGRSSSRGPYESRLGH [HR 1-36]	–	–	0.15	2.35	–
SRQSPSYGRHGSGR [HR 2-15]	> 300	75	–	–	–
GRHGSGLGHSSSHGQH [HR 1-25]	–	–	0.3	4.7	–
HGSSSGSSSHYGQHGSGSR [HR 1-4]	> 300	150	–	–	–
GRHGSGSGQSSSYGPYRSGSGWSSSRGPY [HRNR1013-1041]	> 300	–	–	–	–
SSSSR [HR 1-9]	> 300	–	–	–	–
GRHGSGSGQSSSYSPYGSGSGWSSSR [HRNR2422-2447]	> 300	–	–	–	–
HSSSHGQHGSGSGR [HR 1-38]	–	–	–	> 300	–
SQHGSGSGHSSGYGQHGSR [HR 1-1]	> 300	> 300	–	–	–
GSGSRQSPSYGRHGSGSGR [HR 2-4]	> 300	> 300	–	–	–
